From US12448655B2, “Antibiotic susceptibility of microorganisms and related methods and systems” (CALIFORNIA INSTITUTE OF TECHNOLOGY, priority 2017, dated 2025)

Legend:
Neisseria gonorrhoeae [1] = experiment: Minimum inhibitory concentrations (MICs) of Neisseria gonorrhoeae clinical isolates; type: cell-based
Method: Isolates and agar-dilution MIC testing. Isolates were provided by the University of Washington Neisseria Reference Laboratory and the Centers for Disease Control (CDC) Antibiotic Resistance Isolate Bank Neisseria gonorrhoeae panel (SINuca-Table). MICs of the CDC AR Isolate Bank are reported by the CDC [10], and MIC of all other isolates were determined by agar dilution according to the Clinical and Laboratory Standards Institute (CLSI) guidelines.

E. coli isolates = experiment: Quantification of DNA release following antibiotic exposure, filtration and ddPCR (Example 27); type: cell-based, Escherichia coli; parameters: dose or concentration left out as unconfirmed; conditions: 15 min exposure, 0.22 μm filtration, ddPCR
Method: Filtration experiments. Filtration experiments were performed using E. coli isolates exposed to 0.5 μg/mL ertapenem for 15 min. Immediately following exposure, cultures were passed through 0.22 μm, 1.5 mL cellulose acetate centrifuge tube filters (Corning Costar Spin-X, Corning, NY) by adding 50 μL of sample to the filter and centrifuging for 4 minutes at 1000 ref. DNA was extracted from both the feed and filtrate using QuickExtract DNA Extraction Solution (Lucigen, Middleton, WI, USA). Samples were diluted 10× into extraction buffer and extracted according to manufacturer instructions. The concentration of the single copy E. coli uidA gene was then quantified in the feed and filtrate extractions. The percentage of E. coli DNA in the filtrate was calculated as the filtrate concentration divided by the feed concentration. Droplet digital PCR (ddPCR) was performed using QX200 ddPCR Supermix for EvaGreen (BioRad). 10% of the final reaction volume was template. Published primers targeting the uidA gene in E. coli were used at a final concentration of 500 nM. Cycling conditions consisted of 5.0 min at 95° C., followed by 40 cycles of 95° C. for 30 sec, 60° C. for 30 sec, and 72° C. for 30 sec., with final dye stabilization steps of 4° C. for 5.0 min followed by 90° C. for 5.0 min.
To investigate the mechanism of pol-aAST, experiments were performed to separate free NAs from NAs contained within structurally intact cells or associated with cell debris. Susceptible and resistant clinical isolates were exposed to β-lactams for 15 min, then filtered through […] filters to remove cells from free NAs. NAs in the sample and eluate were then quantified using droplet digital PCR (ddPCR).

Neisseria gonorrhoeae [2] = experiment: Two-step aAST with surfactant (CHAPS) only in the secondary exposure, qPCR CT ratio (Example 11); type: cell-based; conditions: 1 μg/mL ceftriaxone 15 min, then 10 mM CHAPS with DNaseI 5 min
Method: This example was performed using a two-step exposure in which the first step is exposure to a beta-lactam antibiotic and the second step is a 1:1 dilution into DNaseI treatment in the presence of a surfactant.
The inclusion of the surfactant enhances the accessible nucleic acids made available by short (15 minute) b-lactam exposure by adding a second incubation step with a surfactant. Differences in DNA accessibility between the unexposed and exposed tubes are enhanced. DNaseI is used to degrade the DNA made accessible by beta-lactam treatment and the surfactant.
FIG. 23 describes the layout of this experiment. An NG isolate is incubated with a beta-lactam antibiotic for 15 minutes, followed by a DNaseI digestion step in the presence of surfactant. At each time point, DNaseI will be added to degrade the accessible DNA, then the DNaseI will be inactivated simultaneously with the lysis of the remaining cells. The quantified nucleic acids represent those inaccessible from the DNaseI throughout the exposure protocol. • 1. Provide incubation media containing enhancer, accessibility, with and without an antibiotic for each isolate
The samples were mixed before transferring 25 μL of the sample to the prepared secondary incubation (enhancer) tubes. […]

Neisseria gonorrhoeae [3] = experiment: AST by inaccessible DNA without enhancing treatment, static incubation time course, qPCR (Example 7); type: cell-based; conditions: penicillin-susceptible isolate ng_15; 1 μg/mL PEN; MHB; DNaseI secondary step
Method: Antibiotic susceptibility test was performed with methods herein described relying on b-lactam-induced cellular lysis, or cell-wall damage, to generate differences in DNA accessibility between the unexposed and exposed tubes. No enhancing treatment is performed in this example. In this example DNaseI is used to degrade the DNA made accessible by beta-lactam induced damage over incubation times larger than what is tested in examples 1-6 (incubation times >30 minutes)
The layout of this experiment is illustrated in FIG. 14 according to which a penicillin-susceptible isolate is incubated with penicillin for 15 min-6 hours. At each time point, DNaseI will be added to degrade the accessible DNA, then the DNaseI will be inactivated simultaneously with the lysis of the remaining cells. The quantified nucleic acids represent those from the cells with inaccessible DNA throughout the antibiotic exposure and incubation with DNaseI.
The treated and untreated samples were incubated at 37° C. for 15 minutes, Ihr, 2 hr, 3 hr, 4 hr, 5 hr, 6 hr. At each time point, bring the culture tubes into the BSC and incubate an aliquot of the contents with DNaseI to degrade the accessible DNA. • 8. secondary incubation of treated and untreated samples to degrade accessible DNA […]

| Compound | Antibiotic MICs (Neisseria gonorrhoeae [1]; isolate ng_1) | Antibiotic MICs (Neisseria gonorrhoeae [1]; isolate ng_2) | Antibiotic MICs (Neisseria gonorrhoeae [1]; isolate ng_3) | Antibiotic MICs (Neisseria gonorrhoeae [1]; isolate ng_4) | Antibiotic MICs (Neisseria gonorrhoeae [1]; isolate ng_5) | Antibiotic MICs (Neisseria gonorrhoeae [1]; isolate ng_6) | Antibiotic MICs (Neisseria gonorrhoeae [1]; isolate ng_12) | Antibiotic MICs (Neisseria gonorrhoeae [1]; isolate ng_15) | Antibiotic MICs (Neisseria gonorrhoeae [1]; isolate ng_16) | Antibiotic MICs (Neisseria gonorrhoeae [1]; isolate ng_17) | Antibiotic MICs (Neisseria gonorrhoeae [1]; isolate ng_18) | Antibiotic MICs (Neisseria gonorrhoeae [1]; isolate ng_19) | Antibiotic MICs (Neisseria gonorrhoeae [1]; isolate ng_20) | Antibiotic MICs (Neisseria gonorrhoeae [1]; isolate ng_30) | Antibiotic MICs (Neisseria gonorrhoeae [1]; isolate ng_41) | Antibiotic MICs (Neisseria gonorrhoeae [1]; isolate ng_44) | other results |
| --- | --- | --- | --- | --- | --- | --- | --- | --- | --- | --- | --- | --- | --- | --- | --- | --- | --- |
| CO/N=C(\C(=O)N[C@@H]1C(=O)N2C(C(=O)O)=C(CSc3nc(=O)c(=O)[nH]n3C)CS[C@H]12)c1csc(N)n1 [CRO, ceftriaxone] | ≤0.008 µg/mL | <0.008 µg/mL | ≤0.008 µg/mL | 0.030 µg/mL | 0.015 µg/mL | ≤0.008 µg/mL | 0.015 µg/mL | ≤0.008 µg/mL | ≤0.008 µg/mL | ≤0.008 µg/mL | 0.030 µg/mL | 0.015 µg/mL | ≤0.008 µg/mL | 0.500 µg/mL | 0.125 µg/mL | ≤0.008 µg/mL | Antibiotic MICs (Neisseria gonorrhoeae [1]; isolate ng_15, listed as ceftriaxone): < 0.008 µg/mL; Antibiotic MICs (Neisseria gonorrhoeae [1]; isolate ng_17, listed as ceftriaxone): ≤ 0.008 µg/mL; Antibiotic MICs (Neisseria gonorrhoeae [1]; isolate ng_30, listed as ceftriaxone): 0.05 µg/mL; average percentage of DNA released from susceptible isolates (E. coli isolates): 6%; CT ratio (control/treated, qPCR) (Neisseria gonorrhoeae [2]; ceftriaxone-susceptible isolates ng_5, ng_17, ng_19): > 1.5; CT ratio (control/treated, qPCR) (Neisseria gonorrhoeae [2]; reduced-susceptibility isolate ng_30): < 1.5 |
| penicillin | 0.250 µg/mL | 0.250 µg/mL | 0.250 µg/mL | 0.500 µg/mL | 1.000 µg/mL | 0.250 µg/mL | 0.500 µg/mL | 0.015 µg/mL | 0.015 µg/mL | 0.060 µg/mL | 2.000 µg/mL | 2.000 µg/mL | 0.060 µg/mL | 1.000 µg/mL | 2.000 µg/mL | 8.000 µg/mL | antibiotic exposure time needed for a detectable CT ratio without enhancer (Neisseria gonorrhoeae [3]): ≥ 3 h |
